In PMC4116439 (ChemMedChem, 2014):
Residue numbers refer to the chain shown, from its start.

How the values were obtained:
[1] = target: human M3 (Homo sapiens, UniProt P20309); settings: read-out: hM3 IC50; printed as hM1-M4; cited from earlier work
[2] = target: T1, human M2 (Homo sapiens, UniProt P08172); settings: read-out: hM2 IC50; printed as hM1-M4; cited from earlier work
T1 sequence (P08172 1-466): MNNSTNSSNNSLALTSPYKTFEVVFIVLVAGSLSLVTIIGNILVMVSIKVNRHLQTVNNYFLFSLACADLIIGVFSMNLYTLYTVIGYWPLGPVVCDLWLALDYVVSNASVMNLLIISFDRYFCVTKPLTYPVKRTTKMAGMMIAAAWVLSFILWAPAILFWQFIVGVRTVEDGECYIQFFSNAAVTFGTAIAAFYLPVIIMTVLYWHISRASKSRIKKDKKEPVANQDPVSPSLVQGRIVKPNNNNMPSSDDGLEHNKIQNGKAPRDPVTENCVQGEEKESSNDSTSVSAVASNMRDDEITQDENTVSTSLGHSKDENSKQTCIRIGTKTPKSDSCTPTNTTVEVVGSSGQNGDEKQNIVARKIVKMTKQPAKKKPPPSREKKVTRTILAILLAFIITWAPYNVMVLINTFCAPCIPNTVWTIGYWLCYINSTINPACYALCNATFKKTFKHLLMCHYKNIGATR

[3] = target: T2, human M1 (Homo sapiens, UniProt P11229); settings: read-out: hM1 IC50; printed as hM1-M4; cited from earlier work
T2 sequence (P11229 1-460): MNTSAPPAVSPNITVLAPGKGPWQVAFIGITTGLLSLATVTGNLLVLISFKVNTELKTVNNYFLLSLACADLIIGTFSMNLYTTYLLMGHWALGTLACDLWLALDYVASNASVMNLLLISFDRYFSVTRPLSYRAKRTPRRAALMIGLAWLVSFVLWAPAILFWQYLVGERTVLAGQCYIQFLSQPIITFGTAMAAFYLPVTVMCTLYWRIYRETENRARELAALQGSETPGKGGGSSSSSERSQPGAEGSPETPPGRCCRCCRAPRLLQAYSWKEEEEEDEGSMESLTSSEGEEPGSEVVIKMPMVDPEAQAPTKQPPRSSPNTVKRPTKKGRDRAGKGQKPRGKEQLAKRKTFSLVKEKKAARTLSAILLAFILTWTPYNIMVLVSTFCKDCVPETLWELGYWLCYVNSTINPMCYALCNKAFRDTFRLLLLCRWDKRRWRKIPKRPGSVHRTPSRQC

[4] = target: T3, human M4 (Homo sapiens, UniProt P08173); settings: read-out: hM4 IC50; printed as hM1-M4; cited from earlier work
T3 sequence (P08173 1-479): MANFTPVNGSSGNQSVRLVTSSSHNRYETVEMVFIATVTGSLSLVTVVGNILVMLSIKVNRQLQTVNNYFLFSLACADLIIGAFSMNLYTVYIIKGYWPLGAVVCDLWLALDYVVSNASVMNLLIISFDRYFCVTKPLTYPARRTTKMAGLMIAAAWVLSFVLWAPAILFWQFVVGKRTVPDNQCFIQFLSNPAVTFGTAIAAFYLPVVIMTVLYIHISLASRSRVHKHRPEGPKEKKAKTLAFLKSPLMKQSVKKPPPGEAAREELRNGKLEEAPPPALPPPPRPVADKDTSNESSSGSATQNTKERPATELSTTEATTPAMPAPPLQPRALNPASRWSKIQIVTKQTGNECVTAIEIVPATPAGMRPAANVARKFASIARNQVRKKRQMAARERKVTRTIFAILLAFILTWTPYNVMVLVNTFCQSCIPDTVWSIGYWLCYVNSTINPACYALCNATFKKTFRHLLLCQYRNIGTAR

[5] = target: rM3 (Rattus norvegicus, UniProt P08483); assay: rat M3 functional assay; type: cell-based; settings: read-out: rM3 IC50, printed as rM1-rM4
Sequence of rM3 (P08483 whole entry): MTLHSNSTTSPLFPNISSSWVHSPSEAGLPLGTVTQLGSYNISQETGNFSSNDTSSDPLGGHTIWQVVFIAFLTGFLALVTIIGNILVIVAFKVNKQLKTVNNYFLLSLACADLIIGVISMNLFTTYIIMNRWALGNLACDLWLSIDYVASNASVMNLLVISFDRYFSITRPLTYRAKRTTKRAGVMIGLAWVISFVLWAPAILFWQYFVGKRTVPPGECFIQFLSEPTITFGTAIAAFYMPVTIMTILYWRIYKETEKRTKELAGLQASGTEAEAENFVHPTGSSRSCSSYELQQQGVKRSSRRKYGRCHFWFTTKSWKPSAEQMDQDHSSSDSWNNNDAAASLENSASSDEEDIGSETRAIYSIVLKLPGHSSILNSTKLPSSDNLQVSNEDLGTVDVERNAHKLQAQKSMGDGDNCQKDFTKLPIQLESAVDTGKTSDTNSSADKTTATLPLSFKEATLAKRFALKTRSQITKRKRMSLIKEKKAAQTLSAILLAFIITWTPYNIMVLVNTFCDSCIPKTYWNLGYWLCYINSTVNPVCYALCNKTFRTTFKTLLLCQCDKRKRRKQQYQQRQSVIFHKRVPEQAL

[6] = target: T4, rM1 (Rattus norvegicus, UniProt P08482); assay: rat M1 functional assay; type: cell-based; settings: read-out: rM1 IC50, printed as rM1-rM4
T4 sequence (P08482 1-460): T2 sequence (P11229 1-460) with A5V, T254S, P309S, R320K, A337G, I413V

[7] = test system: 68 GPCRs, ion channels and transporters; assay: Eurofins radioligand binding panel; settings: 10 μM, 68 targets
[8] = target: T5, rM2 (Rattus norvegicus, UniProt P10980); assay: rat M2 functional assay; type: cell-based; settings: read-out: rM2 IC50, printed as rM1-rM4
T5 sequence (P10980 1-466): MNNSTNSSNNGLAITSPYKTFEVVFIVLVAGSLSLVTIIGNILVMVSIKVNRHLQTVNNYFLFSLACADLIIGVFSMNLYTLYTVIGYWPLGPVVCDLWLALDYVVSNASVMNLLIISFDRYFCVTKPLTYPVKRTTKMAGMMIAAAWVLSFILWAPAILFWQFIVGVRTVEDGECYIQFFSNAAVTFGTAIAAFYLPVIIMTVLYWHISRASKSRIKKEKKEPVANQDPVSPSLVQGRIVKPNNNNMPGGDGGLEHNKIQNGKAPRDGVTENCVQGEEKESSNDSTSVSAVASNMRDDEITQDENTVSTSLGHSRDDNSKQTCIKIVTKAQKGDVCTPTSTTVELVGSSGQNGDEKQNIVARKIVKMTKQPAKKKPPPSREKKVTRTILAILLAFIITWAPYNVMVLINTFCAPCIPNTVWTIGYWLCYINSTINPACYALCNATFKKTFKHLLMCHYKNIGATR

[9] = target: T6, rM4 (Rattus norvegicus, UniProt P08485); assay: rat M4 functional assay; type: cell-based; settings: read-out: rM4 IC50, printed as rM1-rM4
T6 sequence (P08485 1-478): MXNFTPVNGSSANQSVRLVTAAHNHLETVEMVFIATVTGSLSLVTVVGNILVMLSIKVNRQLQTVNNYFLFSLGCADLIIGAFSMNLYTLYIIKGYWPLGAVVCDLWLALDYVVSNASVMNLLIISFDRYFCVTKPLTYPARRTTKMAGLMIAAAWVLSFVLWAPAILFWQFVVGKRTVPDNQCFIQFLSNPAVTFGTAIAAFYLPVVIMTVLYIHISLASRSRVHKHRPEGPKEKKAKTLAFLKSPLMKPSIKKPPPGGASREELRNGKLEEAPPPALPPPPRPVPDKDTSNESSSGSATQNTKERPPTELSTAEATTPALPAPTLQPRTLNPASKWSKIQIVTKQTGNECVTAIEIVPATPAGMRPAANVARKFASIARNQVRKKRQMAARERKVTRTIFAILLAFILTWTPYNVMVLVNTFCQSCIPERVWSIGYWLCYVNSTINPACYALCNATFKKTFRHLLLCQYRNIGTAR

Sequence of human M3 (P20309 whole entry): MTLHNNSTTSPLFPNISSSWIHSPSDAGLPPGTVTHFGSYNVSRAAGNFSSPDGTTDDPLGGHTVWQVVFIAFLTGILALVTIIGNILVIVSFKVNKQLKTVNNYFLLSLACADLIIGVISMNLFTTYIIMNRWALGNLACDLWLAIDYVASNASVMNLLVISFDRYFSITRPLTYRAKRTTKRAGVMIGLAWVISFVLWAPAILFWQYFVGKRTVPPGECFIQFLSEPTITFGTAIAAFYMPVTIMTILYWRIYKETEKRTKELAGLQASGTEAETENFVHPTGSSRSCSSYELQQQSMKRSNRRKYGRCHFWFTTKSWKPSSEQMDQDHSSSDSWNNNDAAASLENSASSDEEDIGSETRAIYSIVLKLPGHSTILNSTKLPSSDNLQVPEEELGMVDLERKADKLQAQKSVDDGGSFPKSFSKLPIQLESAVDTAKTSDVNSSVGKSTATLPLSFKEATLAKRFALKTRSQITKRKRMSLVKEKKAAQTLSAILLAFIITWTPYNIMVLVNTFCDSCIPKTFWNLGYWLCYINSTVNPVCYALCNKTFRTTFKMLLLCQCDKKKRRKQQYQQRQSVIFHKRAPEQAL

| IC50 [5] [µM] | IC50 [6] [µM] | inhibition in radioligand binding panel [7] [%] | IC50 [8] [µM] | IC50 [9] [µM] | Structure (SMILES) | IC50 [1] [µM] | IC50 [2] [µM] | IC50 [3] [µM] | IC50 [4] [µM] |
| --- | --- | --- | --- | --- | --- | --- | --- | --- | --- |
|  |  |  |  |  | O=C(c1ccc(F)c(F)c1)N1CCN2C(=O)c3ccccc3[C@@]12c1ccc(Cl)cc1 [compound 5] | > 30 | > 30 | > 30 | > 30 |
| > 30 | > 30 | ≤ 50 | > 30 | > 30 | CC(=O)c1cccc(OCc2cc(C(=O)N(C)[C@@H](C)c3ccccn3)no2)c1 [(S)-16] |  |  |  |  |
